The Ki is the dissociation constant of the complex between target and ligand, obtained from inhibition or displacement. As a reminder, the IC50 is the concentration that gives 50% inhibition. Broadly, the EC50 is the concentration needed to bring the measured effect to its halfway point. Usually CC50 stands for the concentration giving 50% cytotoxicity. By AC50 is commonly meant the midpoint of the concentration-response curve, whichever way the signal moves.

Where “and” joins values, the source holds several entries; their conditions need not be identical. Equal entries are not always repeated. Calls of active or inactive are those of the source.

Test [1] deals with Protein kinase C zeta type (Homo sapiens, UniProt Q05513). It counts as functional.
Test [2] deals with Serine/threonine-protein kinase PLK4 (Homo sapiens, UniProt O00444). It counts as functional.
Test [3] concerns the target Serine/threonine-protein kinase D2 (Homo sapiens, UniProt Q9BZL6). It counts as functional.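 Further: measured against PRKD2 as one member of a kinome-wide kinase profiling panel.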
In test [4] the target is Calcium/calmodulin-dependent protein kinase type II subunit gamma (Homo sapiens, UniProt Q13555). It counts as functional.
Test [5] deals with Tyrosine-protein kinase SYK (Homo sapiens, UniProt P43405). It counts as functional.
Test [6] deals with Tyrosine-protein kinase receptor TYRO3 (Homo sapiens, UniProt Q06418). It counts as functional.
Chain of Tyrosine-protein kinase receptor TYRO3 (Q06418 whole entry): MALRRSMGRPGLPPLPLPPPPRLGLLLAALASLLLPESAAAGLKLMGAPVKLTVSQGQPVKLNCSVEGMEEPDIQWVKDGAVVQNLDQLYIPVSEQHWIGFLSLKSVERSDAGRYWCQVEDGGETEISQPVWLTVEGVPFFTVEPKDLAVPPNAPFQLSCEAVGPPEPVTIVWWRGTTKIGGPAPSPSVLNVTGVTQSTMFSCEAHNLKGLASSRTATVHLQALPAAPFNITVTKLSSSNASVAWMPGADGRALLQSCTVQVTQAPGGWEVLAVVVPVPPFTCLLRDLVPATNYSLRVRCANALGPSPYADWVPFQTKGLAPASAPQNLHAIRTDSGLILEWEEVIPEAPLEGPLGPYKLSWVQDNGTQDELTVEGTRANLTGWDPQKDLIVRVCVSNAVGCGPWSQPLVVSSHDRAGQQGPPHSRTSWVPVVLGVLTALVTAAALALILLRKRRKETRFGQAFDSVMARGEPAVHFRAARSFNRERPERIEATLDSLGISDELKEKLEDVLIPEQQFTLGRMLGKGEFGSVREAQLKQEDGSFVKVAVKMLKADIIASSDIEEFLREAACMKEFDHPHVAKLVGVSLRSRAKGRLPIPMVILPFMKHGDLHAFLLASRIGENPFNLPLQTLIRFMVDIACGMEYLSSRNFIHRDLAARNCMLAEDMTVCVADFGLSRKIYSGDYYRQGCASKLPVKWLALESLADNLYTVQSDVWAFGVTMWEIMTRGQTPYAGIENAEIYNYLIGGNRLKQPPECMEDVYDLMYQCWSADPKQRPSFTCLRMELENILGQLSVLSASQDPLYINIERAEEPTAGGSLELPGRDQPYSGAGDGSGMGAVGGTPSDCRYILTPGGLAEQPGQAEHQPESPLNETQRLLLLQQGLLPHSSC
Test [7] addresses Death-associated protein kinase 3 (Homo sapiens, UniProt O43293). It counts as functional.
Test [8] has as its target Serine/threonine-protein kinase Chk2 (Homo sapiens, UniProt O96017). It counts as functional.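 Further: CHEK2 entry within a kinome-wide screening panel.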
Test [9] concerns the target Cell division cycle 7-related protein kinase (Homo sapiens, UniProt O00311). It counts as functional.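 Further: value obtained from a kinome-wide kinase panel.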
The target in test [10] is Casein kinase I isoform alpha (Homo sapiens, UniProt P48729). It counts as functional.
Chain of Casein kinase I isoform alpha (P48729 whole entry, canonical isoform): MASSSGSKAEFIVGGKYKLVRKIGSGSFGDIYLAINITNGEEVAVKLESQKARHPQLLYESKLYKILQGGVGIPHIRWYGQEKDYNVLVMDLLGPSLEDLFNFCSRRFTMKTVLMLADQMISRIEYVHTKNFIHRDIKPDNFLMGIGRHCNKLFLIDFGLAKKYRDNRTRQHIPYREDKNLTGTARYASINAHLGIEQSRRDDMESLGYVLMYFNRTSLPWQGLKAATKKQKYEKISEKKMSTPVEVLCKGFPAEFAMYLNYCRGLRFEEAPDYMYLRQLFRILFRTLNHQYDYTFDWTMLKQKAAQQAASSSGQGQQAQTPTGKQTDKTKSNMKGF
Test [11] concerns the target Tyrosine-protein kinase Lyn (Homo sapiens, UniProt P07948). It counts as functional.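 Further: lyn as one member of a kinase panel.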
Test [12] has as its target Tyrosine-protein kinase ITK/TSK (Homo sapiens, UniProt Q08881). It counts as functional.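 Further: affinity for ITK measured as one member of a broad kinase panel profiling binding across the kinome.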
Test [13] deals with Tyrosine-protein kinase Blk (Homo sapiens, UniProt P51451). It counts as functional.
For test [14], the target named is Receptor-type tyrosine-protein kinase FLT3 (Homo sapiens, UniProt P36888). It counts as functional.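 Further: FLT3 was tested as one member of a kinome-wide kinase panel.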
Chain of Receptor-type tyrosine-protein kinase FLT3 (P36888 whole entry): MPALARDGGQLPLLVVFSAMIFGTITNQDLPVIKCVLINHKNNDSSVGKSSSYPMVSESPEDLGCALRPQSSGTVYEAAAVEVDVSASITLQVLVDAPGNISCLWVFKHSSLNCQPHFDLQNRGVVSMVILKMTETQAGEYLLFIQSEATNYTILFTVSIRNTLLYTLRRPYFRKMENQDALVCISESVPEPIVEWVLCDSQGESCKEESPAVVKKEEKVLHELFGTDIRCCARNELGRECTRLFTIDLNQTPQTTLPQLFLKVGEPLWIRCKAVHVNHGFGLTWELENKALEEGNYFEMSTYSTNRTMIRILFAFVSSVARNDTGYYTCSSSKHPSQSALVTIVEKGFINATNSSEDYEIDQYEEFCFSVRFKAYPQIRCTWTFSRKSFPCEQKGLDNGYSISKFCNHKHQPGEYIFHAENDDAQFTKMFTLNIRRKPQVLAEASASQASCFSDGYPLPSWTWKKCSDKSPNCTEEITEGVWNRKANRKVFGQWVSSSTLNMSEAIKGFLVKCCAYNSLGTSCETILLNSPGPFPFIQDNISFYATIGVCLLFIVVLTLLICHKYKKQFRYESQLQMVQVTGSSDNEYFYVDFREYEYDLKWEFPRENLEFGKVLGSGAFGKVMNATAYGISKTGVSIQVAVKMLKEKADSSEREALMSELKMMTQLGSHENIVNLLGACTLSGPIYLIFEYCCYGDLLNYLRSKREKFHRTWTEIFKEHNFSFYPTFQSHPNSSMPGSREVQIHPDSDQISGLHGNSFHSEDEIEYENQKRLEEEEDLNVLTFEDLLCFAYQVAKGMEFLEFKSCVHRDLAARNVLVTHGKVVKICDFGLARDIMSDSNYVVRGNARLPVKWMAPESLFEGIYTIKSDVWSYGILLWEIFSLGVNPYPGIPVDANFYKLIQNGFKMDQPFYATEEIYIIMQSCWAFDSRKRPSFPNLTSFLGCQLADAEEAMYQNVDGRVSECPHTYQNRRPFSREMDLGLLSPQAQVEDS
Test [15] addresses Receptor tyrosine-protein kinase erbB-2 (Homo sapiens, UniProt P04626). As to the kind of experiment: Navigating the Kinome. Panel member name: ERBB2. It counts as functional.
For test [16], the target named is Mitogen-activated protein kinase 1 (Homo sapiens, UniProt P28482). It counts as functional.
The target in test [17] is Protein kinase C iota type (Homo sapiens, UniProt P41743). It counts as functional.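 Further: measured within a kinome-wide kinase panel, PRKCI as panel member.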
Chain of Protein kinase C iota type (P41743 whole entry): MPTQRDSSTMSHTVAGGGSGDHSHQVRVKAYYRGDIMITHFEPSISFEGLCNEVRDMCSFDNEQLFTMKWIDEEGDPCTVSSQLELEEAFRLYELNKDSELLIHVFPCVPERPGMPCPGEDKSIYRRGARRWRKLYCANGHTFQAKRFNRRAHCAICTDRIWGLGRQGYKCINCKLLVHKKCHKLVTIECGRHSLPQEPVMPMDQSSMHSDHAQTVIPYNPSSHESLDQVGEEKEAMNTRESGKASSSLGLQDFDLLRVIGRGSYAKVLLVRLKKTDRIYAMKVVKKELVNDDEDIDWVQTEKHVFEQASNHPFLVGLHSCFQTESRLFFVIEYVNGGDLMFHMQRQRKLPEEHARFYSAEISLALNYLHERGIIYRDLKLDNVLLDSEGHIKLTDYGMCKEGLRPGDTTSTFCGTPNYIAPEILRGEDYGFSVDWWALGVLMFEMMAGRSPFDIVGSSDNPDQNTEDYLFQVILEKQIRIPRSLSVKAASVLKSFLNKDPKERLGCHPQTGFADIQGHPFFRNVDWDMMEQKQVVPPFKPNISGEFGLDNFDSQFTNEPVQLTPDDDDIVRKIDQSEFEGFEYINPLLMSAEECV
Test [18] concerns the target cAMP-dependent protein kinase catalytic subunit PRKX (Homo sapiens, UniProt P51817). It counts as functional.
The target in a further test is Aurora kinase B (Homo sapiens, UniProt Q96GD4). It counts as functional.
Test [19] deals with Interleukin-1 receptor-associated kinase 4 (Homo sapiens, UniProt Q9NWZ3). It counts as functional.
Test [20] deals with 3-phosphoinositide-dependent protein kinase 1 (Homo sapiens, UniProt O15530). It counts as functional.
The target in test [21] is Serine/threonine-protein kinase MRCK alpha (Homo sapiens, UniProt Q5VT25). It counts as functional.
In a further test the target is T1, Aspartyl aminopeptidase (Plasmodium falciparum 3D7, UniProt Q8I2J3).
T1 sequence (Q8I2J3 whole entry): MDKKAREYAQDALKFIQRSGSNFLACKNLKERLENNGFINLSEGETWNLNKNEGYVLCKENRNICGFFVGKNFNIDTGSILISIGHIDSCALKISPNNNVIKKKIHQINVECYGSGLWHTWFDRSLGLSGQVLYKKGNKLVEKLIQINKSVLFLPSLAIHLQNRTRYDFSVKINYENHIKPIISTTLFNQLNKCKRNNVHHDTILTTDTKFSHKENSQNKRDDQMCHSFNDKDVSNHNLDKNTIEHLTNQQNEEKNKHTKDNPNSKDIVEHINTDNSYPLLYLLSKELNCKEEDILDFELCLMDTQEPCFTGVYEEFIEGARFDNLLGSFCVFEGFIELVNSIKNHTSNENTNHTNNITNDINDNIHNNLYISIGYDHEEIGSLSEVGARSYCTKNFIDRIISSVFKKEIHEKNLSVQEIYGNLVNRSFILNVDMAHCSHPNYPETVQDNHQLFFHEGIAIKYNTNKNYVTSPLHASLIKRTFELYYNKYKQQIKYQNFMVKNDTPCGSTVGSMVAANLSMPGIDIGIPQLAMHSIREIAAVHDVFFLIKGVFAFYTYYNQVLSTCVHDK

Test [22] can be described thus: growth suppression of beta-catenin-knockout colon cells, dose response, cell-based, HCT116, human colon tumor (AID 1045).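 Further: HCT116 colon tumor cells with beta catenin knocked out; cells exposed to compound for 60 hours.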 It counts as functional.
Test [23] in a line: THP-1 cell cytotoxicity, dose response, cytotoxicity control for non-replicating M. tuberculosis project (AID 489025). It counts as functional.
The target in test [24] is Phosphoethanolamine/phosphocholine phosphatase (Homo sapiens, UniProt Q8TCT1). Briefly: SAR assay for compounds that inhibit PHOSPHO1. [Related pubchem assays (depositor defined):AID1545, AID1565, AID1574].
Chain of Phosphoethanolamine/phosphocholine phosphatase (Q8TCT1 whole entry): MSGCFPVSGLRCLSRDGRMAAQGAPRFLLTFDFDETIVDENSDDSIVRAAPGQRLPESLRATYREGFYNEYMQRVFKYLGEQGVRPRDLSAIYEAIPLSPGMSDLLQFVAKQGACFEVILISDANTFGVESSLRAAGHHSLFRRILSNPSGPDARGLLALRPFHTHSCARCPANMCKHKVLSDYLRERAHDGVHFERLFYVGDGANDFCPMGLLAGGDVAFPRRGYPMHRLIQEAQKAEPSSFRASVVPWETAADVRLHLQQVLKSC
The target in test [25] is DNA dC->dU-editing enzyme APOBEC-3G (Homo sapiens, UniProt Q9HC16). As to the kind of experiment: Dose Response confirmation of small molecule APOBEC3G DNA Deaminase Inhibitors via a fluorescence-based single-stranded DNA deaminase assay. [Related pubchem assays (depositor defined):AID493012, AID493028]. It counts as functional.
Test [26] is described as follows: cytotoxicity in HEK-293T cells, dose response, cytotoxicity control for TCR NF-kB inhibitor project, luminescence, T-cell screen hits (AID 489026).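 Further: cells exposed to compound about 14 hours before the viability readout.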 It counts as functional, cell-based.
The target in another test is Paired box protein Pax-8 (Homo sapiens, UniProt Q06710). As to the kind of experiment: inhibitors of PAX8-driven TPO luciferase reporter, dose response, RMG-I cells, cherry-pick (AID 687027).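 Further: luciferase reporter driven by Pax8 target thyroperoxidase promoter measured by SteadyGlo luminescence.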 It counts as functional, cell-based. A general note: Reporter assays use an easily measured gene product as a stand-in for the process of interest.
Test [27] has as its target Bifunctional protein GlmU (Mycobacterium tuberculosis, UniProt P9WMN3). Briefly: Inhibitors of Mycobacterial Glucosamine-1-phosphate acetyl transferase (GlmU). Secondary screen. Also on record: species or system Mycobacterium tuberculosis H37Rv.
The next test has as its system HeLa. As to the kind of experiment: HeLa cell cytotoxicity, dose response, cytotoxicity control, 24 h, cherry-picked samples (AID 504726).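 Further: potency for cytotoxicity as loss of luminescence signal.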 It counts as functional, cell-based. The following applies: Homo sapiens.
Test [28] can be described thus: NIH-3T3 fibroblast cytotoxicity, dose response, cytotoxicity control, cell-based, fluorescence, Alamar Blue, secondary assay (AID 2327).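 Further: NIH-3T3 mouse fibroblasts cultured with fluconazole at 8 µg/mL.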 It counts as functional.
For test [29], the target named is ATP-dependent molecular chaperone HSP82 (Candida albicans (strain WO-1) (Yeast), UniProt C4YTQ8). As to the kind of experiment: loss of DOC-induced GRE-beta-galactosidase reporter signal, dose response, Hsp90 inhibitor project, S. cerevisiae, luminescence (AID 2400).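 Further: beta-galactosidase luminescence from glucocorticoid response element reporter as proxy for Hsp90 function; inhibitor potency where signal loss means Hsp90 inhibition.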 It counts as functional, cell-based.

Chain of Tyrosine-protein kinase Lyn (P07948 whole entry): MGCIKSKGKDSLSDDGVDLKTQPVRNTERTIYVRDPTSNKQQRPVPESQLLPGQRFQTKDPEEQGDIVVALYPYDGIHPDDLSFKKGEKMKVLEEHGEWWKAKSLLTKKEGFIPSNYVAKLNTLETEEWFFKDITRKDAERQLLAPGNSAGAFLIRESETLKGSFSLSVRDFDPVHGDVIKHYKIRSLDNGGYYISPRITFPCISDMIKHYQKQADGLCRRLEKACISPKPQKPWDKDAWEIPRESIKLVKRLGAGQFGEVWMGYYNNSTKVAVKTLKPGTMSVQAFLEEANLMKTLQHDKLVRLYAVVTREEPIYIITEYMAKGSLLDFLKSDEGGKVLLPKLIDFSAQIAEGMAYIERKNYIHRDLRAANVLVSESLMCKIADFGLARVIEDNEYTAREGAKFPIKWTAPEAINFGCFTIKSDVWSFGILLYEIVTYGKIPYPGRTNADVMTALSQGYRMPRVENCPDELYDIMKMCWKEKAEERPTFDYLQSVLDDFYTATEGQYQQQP
Chain of Serine/threonine-protein kinase D2 (Q9BZL6 whole entry): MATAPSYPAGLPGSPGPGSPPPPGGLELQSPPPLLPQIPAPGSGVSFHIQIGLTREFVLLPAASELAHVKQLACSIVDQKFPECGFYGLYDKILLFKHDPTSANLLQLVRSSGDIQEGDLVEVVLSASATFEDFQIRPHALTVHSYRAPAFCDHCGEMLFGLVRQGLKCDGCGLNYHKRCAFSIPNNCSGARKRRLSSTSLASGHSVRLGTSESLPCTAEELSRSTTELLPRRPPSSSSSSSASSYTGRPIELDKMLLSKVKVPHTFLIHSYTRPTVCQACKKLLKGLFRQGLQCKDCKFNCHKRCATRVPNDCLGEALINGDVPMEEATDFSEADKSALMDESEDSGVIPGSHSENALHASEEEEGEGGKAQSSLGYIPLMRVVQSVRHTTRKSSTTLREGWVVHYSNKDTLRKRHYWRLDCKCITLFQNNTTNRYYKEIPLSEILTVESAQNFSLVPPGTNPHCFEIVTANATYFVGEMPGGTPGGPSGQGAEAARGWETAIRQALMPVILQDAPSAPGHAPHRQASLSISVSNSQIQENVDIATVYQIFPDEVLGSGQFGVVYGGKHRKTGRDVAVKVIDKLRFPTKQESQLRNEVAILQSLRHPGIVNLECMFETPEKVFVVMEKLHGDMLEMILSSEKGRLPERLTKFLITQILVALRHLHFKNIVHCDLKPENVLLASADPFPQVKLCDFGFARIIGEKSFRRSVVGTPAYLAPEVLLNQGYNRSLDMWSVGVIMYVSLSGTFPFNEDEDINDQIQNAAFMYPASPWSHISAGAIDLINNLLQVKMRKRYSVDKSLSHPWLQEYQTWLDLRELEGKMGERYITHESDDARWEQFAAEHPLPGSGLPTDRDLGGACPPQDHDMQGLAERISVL
Chain of Cell division cycle 7-related protein kinase (O00311 whole entry, canonical isoform): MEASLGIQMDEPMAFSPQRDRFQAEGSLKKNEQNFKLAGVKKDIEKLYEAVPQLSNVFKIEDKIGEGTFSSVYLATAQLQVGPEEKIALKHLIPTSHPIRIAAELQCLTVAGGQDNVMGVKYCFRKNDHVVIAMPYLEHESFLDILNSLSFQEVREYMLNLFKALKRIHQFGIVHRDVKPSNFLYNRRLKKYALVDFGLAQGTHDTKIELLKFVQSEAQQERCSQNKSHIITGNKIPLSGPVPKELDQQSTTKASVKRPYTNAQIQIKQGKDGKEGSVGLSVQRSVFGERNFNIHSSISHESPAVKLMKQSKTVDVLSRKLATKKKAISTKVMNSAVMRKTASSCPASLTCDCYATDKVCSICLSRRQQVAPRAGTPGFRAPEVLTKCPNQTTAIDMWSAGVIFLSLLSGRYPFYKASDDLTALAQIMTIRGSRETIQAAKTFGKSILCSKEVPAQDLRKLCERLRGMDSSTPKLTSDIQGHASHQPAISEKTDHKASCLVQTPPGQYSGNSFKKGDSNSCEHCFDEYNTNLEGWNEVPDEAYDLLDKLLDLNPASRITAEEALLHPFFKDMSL

Consider `Cc1cccc(NC(=O)Nc2ccc3c(c2)CCc2sc4ncnc(N)c4c2-3)c1`, for which the Ki in test [1] was > 7.94 µM (inactive); in test [2], 0.251 µM (active); in test [3], > 10 µM (inactive); in [4], > 6.31 µM (inactive); in test [5], 1.58 µM (active); in [6] it was > 2 µM (inactive). In addition, the Ki was > 1.26 µM (inactive) in test [7]; 1.26 µM (active) in test [8]; > 1.26 µM (inactive) in test [9]; > 6.31 µM (inactive) in test [10]; 0.126 µM (active) in test [11]; > 1.58 µM (inactive) in [12]. Besides, the Ki was 0.126 µM (active) in test [13]; 0.002 µM (active) in test [14]; > 1.58 µM (inactive) in test [15]; > 7.94 µM (inactive) in [16]; > 5.01 µM (inactive) in test [17]; > 1.58 µM (inactive) in [18]. The inhibition constant Ki on Aurora kinase B is 0.0316 µM (active); in test [19], > 10 µM (inactive); in test [20] it was > 3.98 µM (inactive); in test [21], > 10 µM (inactive).

Consider `Cc1ccc(-n2sc3ccccc3c2=O)cc1`, for which the IC50 was 1.25 µM (active) on Aspartyl aminopeptidase; 2.28 µM (inactive) and 1.46 µM (inactive) in test [24]; 18.2 µM (active) in test [25]. For the same molecule, the EC50 in [22] is 24.4 µM (active). Also, the CC50 in [23] is 18.6 µM (active).

Consider `CCC(=O)NC(c1ccc(C)cc1)c1ccc2cccnc2c1O` (stereo not drawn), for which the IC50 in test [26] is > 80 µM (inactive). Further, the AC50 on Paired box protein Pax-8 was 1.81 µM (active).

In the case of `N/C(=N\N=C/c1ccc(-c2ccc(O)c(C(=O)O)c2)o1)N[N+](=O)[O-]`, in test [27], the IC50 is 28.4 µM (active). The AC50 in the test with HeLa is 151 µM (active).

Regarding `CCCC(=O)NC(c1ccc(Cl)cc1)c1ccc2cccnc2c1O` (stereo not drawn), the EC50 in test [28] is 18 µM (active); in test [29] it was > 160 µM (inactive).

The values above are taken from ChEMBL document CHEMBL1201862, “PubChem BioAssay data set” (2004).
